Experimental data as given in ChEMBL document CHEMBL3880382, “TRH-like peptide derivatives as inhibitors of the TRH-degrading ectoenzyme” (2010).
Calls of active or inactive are those of the source. The rule behind the calls is not given here. Non-standard residues stand in square brackets, D forms with d. Residues, ends and D or L forms follow the SMILES beside them. *: point of attachment. AMC = Cc1cc(=O)oc2cc(N*)ccc12; pGlu = O=C1CC[C@@H](C(=O)O)N1

Columns and labels:
[1] = biological target: T1, Thyrotropin-releasing hormone receptor (Rattus norvegicus, UniProt Q01717); test: Displacement of [3H]-3MeHis-TRH from TRH receptor in Sprague-Dawley rat cortical membranes
T1 sequence (Q01717 whole entry): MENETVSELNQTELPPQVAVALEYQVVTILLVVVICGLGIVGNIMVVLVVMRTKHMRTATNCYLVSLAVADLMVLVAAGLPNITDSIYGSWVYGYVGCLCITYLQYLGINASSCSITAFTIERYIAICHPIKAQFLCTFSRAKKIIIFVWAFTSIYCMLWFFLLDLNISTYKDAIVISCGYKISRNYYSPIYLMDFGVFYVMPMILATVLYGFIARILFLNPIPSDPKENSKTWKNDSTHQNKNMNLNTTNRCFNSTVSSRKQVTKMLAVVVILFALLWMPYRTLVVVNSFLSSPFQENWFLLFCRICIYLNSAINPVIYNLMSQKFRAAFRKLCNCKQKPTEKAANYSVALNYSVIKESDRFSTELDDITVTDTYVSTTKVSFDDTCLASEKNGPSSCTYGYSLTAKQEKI

[2] = biological target: T2, Thyrotropin-releasing hormone-degrading ectoenzyme (Homo sapiens, UniProt Q9UKU6); test: Competitive inhibition of TRH-DE (unknown origin)
T2 sequence (Q9UKU6 whole entry): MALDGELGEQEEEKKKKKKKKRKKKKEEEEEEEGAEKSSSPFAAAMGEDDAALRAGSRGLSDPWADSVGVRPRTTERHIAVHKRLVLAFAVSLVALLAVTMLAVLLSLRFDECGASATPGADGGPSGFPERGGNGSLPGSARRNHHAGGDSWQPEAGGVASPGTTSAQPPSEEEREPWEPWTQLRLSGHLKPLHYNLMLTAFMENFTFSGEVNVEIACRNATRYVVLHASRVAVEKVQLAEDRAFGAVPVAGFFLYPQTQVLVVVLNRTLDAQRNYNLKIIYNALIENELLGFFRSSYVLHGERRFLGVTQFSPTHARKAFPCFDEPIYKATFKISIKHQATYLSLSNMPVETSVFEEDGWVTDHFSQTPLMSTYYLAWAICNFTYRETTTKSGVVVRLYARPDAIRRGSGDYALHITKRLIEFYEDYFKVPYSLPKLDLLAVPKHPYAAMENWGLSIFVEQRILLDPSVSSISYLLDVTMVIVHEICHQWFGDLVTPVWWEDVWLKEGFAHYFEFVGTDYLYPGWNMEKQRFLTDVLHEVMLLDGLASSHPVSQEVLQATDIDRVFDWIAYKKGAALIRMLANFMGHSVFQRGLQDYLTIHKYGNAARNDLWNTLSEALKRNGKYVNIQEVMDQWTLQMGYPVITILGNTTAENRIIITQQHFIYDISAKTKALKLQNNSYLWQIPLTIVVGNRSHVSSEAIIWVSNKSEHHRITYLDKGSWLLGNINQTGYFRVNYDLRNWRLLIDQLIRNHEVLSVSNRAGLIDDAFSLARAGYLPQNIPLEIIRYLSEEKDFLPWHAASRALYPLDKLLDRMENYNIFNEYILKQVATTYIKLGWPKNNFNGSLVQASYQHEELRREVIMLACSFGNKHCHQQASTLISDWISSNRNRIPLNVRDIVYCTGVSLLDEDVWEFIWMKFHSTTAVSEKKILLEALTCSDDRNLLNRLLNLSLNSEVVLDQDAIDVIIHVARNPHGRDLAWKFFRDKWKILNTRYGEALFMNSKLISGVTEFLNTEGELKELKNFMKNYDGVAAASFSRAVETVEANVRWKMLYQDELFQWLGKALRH

Rattus norvegicus [3] = test: Behavioral effect in cannulated Wistar rat assessed as number of wet dog shakes at 10 mg/kg, ip measured every 5 mins for 30 secs during 40 mins observation period; assay type: functional
Rattus norvegicus [4] = test: In vivo inhibition of TRH-DE in cannulated Wistar rat assessed as TRH-mediated increase in locomotion at 10 mg/kg, ip measured every 5 mins for 30 secs during 40 mins of observation period; assay type: functional, organism-based
Rattus norvegicus [5] = test: In vivo inhibition of TRH-DE in cannulated Wistar rat assessed as increase in TRH-mediated locomotion at 5 ug in 1 ul, icv after 30 mins; assay type: functional, organism-based
[6] = biological target: T3, Thyrotropin releasing hormone degrading enzyme (Sus scrofa) (UniProt A0A287AP33); test: Competitive inhibition of pig brain TRH-DE at 12.5 to 50 uM using Glp-His-ProAMC as substrate by Lineweaver-Burk analysis
[7] = biological target: T3, Thyrotropin releasing hormone degrading enzyme (Sus scrofa); test: Reversible inhibition of pig brain TRH-DE using Glp-His-ProAMC as substrate at 160 uM preincubated for 75 mins by DPP-4-based continuous fluorometric method
[8] = biological target: T3, Thyrotropin releasing hormone degrading enzyme (Sus scrofa); test: Inhibition of pig brain TRH-DE at 1 mM using Glp-His-ProAMC as substrate by DPP-4-based continuous fluorometric method
[9] = biological target: T3, Thyrotropin releasing hormone degrading enzyme (Sus scrofa); test: Reversible inhibition of pig brain TRH-DE using Glp-His-ProAMC as substrate at 1 uM preincubated for 75 mins by DPP-4-based continuous fluorometric method
[10] = biological target: Thyrotropin releasing hormone degrading enzyme (Sus scrofa, UniProt A0A287AP33); test: Inhibition of pig brain TRH-DE using Glp-His-ProAMC as substrate by DPP-4-based continuous fluorometric method
Rattus norvegicus [11] = test: In vivo inhibition of TRH-DE in cannulated Wistar rat assessed as increase in TRH-mediated chewing at 10 mg/kg, ip measured every 5 mins for 30 secs during 40 mins observation period; assay type: functional, organism-based
Rattus norvegicus [12] = test: In vivo inhibition of TRH-DE in cannulated Wistar rat assessed as increase in TRH-mediated sniffing at 10 mg/kg, ip measured every 5 mins for 30 secs during 40 mins observation period; assay type: functional, organism-based
Rattus norvegicus [13] = test: In vivo inhibition of TRH-DE in cannulated Wistar rat assessed as increase in TRH-mediated grooming at 10 mg/kg, ip measured every 5 mins for 30 secs during 40 mins observation period; assay type: functional, organism-based
Rattus norvegicus [14] = test: In vivo inhibition of TRH-DE in cannulated Wistar rat assessed as increase in TRH-mediated wet dog shakes at 5 ug in 1 ul, icv followed by TRH addition measured after 30 mins relative to control; assay type: functional
Rattus norvegicus [15] = test: In vivo inhibition of TRH-DE in cannulated Wistar rat assessed as increase in TRH-mediated wet dog shakes at 10 mg/kg, ip measured for last 25 mins of the 40 mins observation period; assay type: functional, organism-based
[16] = biological target: T3, Thyrotropin releasing hormone degrading enzyme (Sus scrofa); test: Inhibition of pig brain TRH-DE at 1 uM using Glp-His-ProAMC as substrate by DPP-4-based continuous fluorometric method
[17] = substrate: Cc1cc(=O)oc2cc(NC(=O)[C@@H]3CCCN3C(=O)[C@H](Cc3cnc[nH]3)NC(=O)[C@@H]3CCC(=O)N3)ccc12; test: (§1) Substrate activity at pig brain TRH-DE assessed as Vmax after 18 hrs by HPLC analysis; details: Sus scrofa
[18] = substrate: NC(=O)[C@@H]1CCCN1C(=O)[C@H](Cc1ccc(O)cc1)NC(=O)[C@@H]1CCC(=O)N1; test: as §1; details: Sus scrofa
[19] = substrate: O=C1CC[C@@H](C(=O)N[C@@H](Cc2cnc[nH]2)C(=O)N2CCC[C@H]2C(=O)O)N1; test: as §1; details: Sus scrofa
[20] = substrate: NC(=O)[C@@H]1CCCN1C(=O)[C@H](Cc1cccs1)NC(=O)[C@@H]1CCC(=O)N1; test: as §1; details: Sus scrofa
[21] = substrate: NC(=O)[C@@H]1CCCN1C(=O)[C@H](Cc1c[nH]cn1)NC(=O)[C@@H]1CCC(=O)N1; test: as §1; details: Sus scrofa
[22] = substrate: NC(=O)[C@@H]1CCCN1C(=O)[C@H](Cc1ccccc1)NC(=O)[C@@H]1CCC(=O)N1; test: as §1; details: Sus scrofa
[23] = substrate: Cc1cc(=O)oc2cc(NC(=O)[C@@H]3CCCN3C(=O)[C@H](Cc3cnc[nH]3)NC(=O)[C@@H]3CCC(=O)N3)ccc12; test: (§2) Substrate activity at pig brain TRH-DE assessed as Km by discontinuous fluorometric method; details: Sus scrofa
[24] = substrate: NC(=O)[C@@H]1CCCN1C(=O)[C@H](Cc1ccc(O)cc1)NC(=O)[C@@H]1CCC(=O)N1; test: as §2; details: Sus scrofa
[25] = substrate: O=C1CC[C@@H](C(=O)N[C@@H](Cc2cnc[nH]2)C(=O)N2CCC[C@H]2C(=O)O)N1; test: as §2; details: Sus scrofa
[26] = substrate: NC(=O)[C@@H]1CCCN1C(=O)[C@H](Cc1cccs1)NC(=O)[C@@H]1CCC(=O)N1; test: as §2; details: Sus scrofa
[27] = substrate: NC(=O)[C@@H]1CCCN1C(=O)[C@H](Cc1c[nH]cn1)NC(=O)[C@@H]1CCC(=O)N1; test: as §2; details: Sus scrofa
[28] = substrate: NC(=O)[C@@H]1CCCN1C(=O)[C@H](Cc1ccccc1)NC(=O)[C@@H]1CCC(=O)N1; test: as §2; details: Sus scrofa

With O=C(O)C(Cc1ccccc1)N[C@@H](Cc1cn(Cc2ccccc2)cn1)C(=O)Nc1ccc2ccccc2c1 (stereo not given in full) the Ki [1] was 0.0224 µM, the Ki [2] was 8 µM and the Activity (Rattus norvegicus [3]) was 0.

In the case of NC(=O)C[C@H](NC(=O)[C@@H]1CCC(=O)N1)C(=O)N1CCC[C@H]1C(N)=O ([pGlu]-Asn-Pro-NH2), the inhibition (Rattus norvegicus [4]) is reported as “Active”, the inhibition (Rattus norvegicus [5]) is reported as “Active” and the inhibition [6] is reported as “Active”. For the same molecule, the Ki [1] was 7.08 µM, the inhibition [7] was “Active” and the inhibition [8] was 97%.

For Cc1cc(=O)oc2cc(NC(=O)[C@@H]3CCCN3C(=O)[C@H](CC(N)=O)NC(=O)[C@@H]3CCC(=O)N3)ccc12 ([pGlu]-Asn-Pro-{AMC}), the inhibition [9] was “Active”, the Ki [1] was 47.9 µM and the Ki [10] was 0.41 to 0.97 µM. For the same molecule, the inhibition (Rattus norvegicus [11]) was “Active”, the inhibition (Rattus norvegicus [12]) was “Active” and the inhibition (Rattus norvegicus [13]) was “Active”. The “fold change (FC)” value (Rattus norvegicus [14]) was 18, the inhibition (Rattus norvegicus [15]) was “Active” and the inhibition [16] was 50%.

B1: Thyrotropin releasing hormone degrading enzyme (Sus scrofa), A0A287AP33 (protein)
chain: MALDGERGEQEEEKKKKKKKKKRKKKKEEEGAKKSSSPFVATMGENDAALRAGGRGLSDPWADSVGVRPRTTERHITVHKRLVLAFAVSIVALLAVTMLAVLLSLRFDECGASIPPGADGGPAGFPARGGNESLPGSSRRDHHAGGDSSQPGAGREDTPETPSAQPPSEEEQEQWQPWTQLRLSGHLKPLHYNLMLTAFMENFTFSGEVNVEIACRNATRYVVLHASRVAVEKVQVAEDRVAGAVPVAGFFLYPQTQVLVVVLNRTLDAQRNYNLKIIYNALIENELLGFFRSSYVLHGERRFLGVTQFSPTHARKAFPCFDEPIYKATFKISIKHQATYLSLSNMPVETSVFEEDGWVTDHFSQTPLMSTYYLAWAICNFTYRETTTKSGVVVRLYARPDAIRRGSGDYALHITKRLIEFYEDYFKVPYSLPKLDLLAVPKHPYAAMENWGLSIFVEQRILLDPSVSSISYLLDVTMVIVHEICHQWFGDLVTPVWWEDVWLKEGFAHYFEFVGTDYLYPGWNMEKQRFLTDVLHEVMLLDGLASSHPVSQEVLRATDIDRVFDWIAYKKGAALIRMLANFMGHSVFQRGLQDYLTIHKYGNAARNDLWNTLSEALKRNGKYVNIQEVMDQWTLQMGYPVITIFGNTTAENRIIITQQHFIYDISAKAKPHELQNSSYLWQIPLTIVVGNRSHVSSEAIIWVSNKTEHHRITSLNKGSWLLGNINQTGYFRVNYDLRNWRLLIDQLIRNHEVLSVSNRAGLIDDAFSLARAGYLPQNIPLEIIRYLSEEKDFLPWHAASRALYPLDKLLDRMEKYNVFNEYILKQVATTYIKLGWPKNNFNGSLVQASYQHEELRREVIMLACSFGNKHCHQQASTLISDWISSNRNRIPLNVRDIVYCTGVSLLDEDVWEFIWMKFHSTTAISEKKILLEALTCSDDRNLLNRLLNLSLNSEVVLDQDAIDVIIHVARNPHGRDLAWKFFRDKWKILNTRYGEALFMNSKLISGVTEFLNTEGELKELKNFMKSYDGVAAASFSRAVETVEANVRWKMLYQDELFQWLGKALRH
B1 showed a Vmax [17] of 0.11 U/mg, a Vmax [18] of 0.67 U/mg and a Vmax [19] of 4.43 U/mg. The Vmax [20] was 2.19 U/mg, the Vmax [21] was 2.63 U/mg and the Vmax [22] was 1.64 U/mg. It also gave a Km [23] of 3.1 µM, a Km [24] of 15 µM and a Km [25] of 311 µM. For the same molecule, the Km [26] was 34 µM, the Km [27] was 35 µM and the Km [28] was 55 µM.
